Test: Plasma pharmacokinetics after a single oral dose of rucaparib 600 mg in patients with advanced solid tumors, by hepatic function group
Settings: for AUC(0-inf) / AUC(0-t) / Cmax / Vd/F / half-life / Tmax: human, plasma, po, 600 mg, single oral rucaparib 600 mg; for AUC(0-inf): AUC0–inf; for AUC(0-t): AUC0–last; for Vd/F: Vz/F
[1] = Median (min–max), Child–Pugh mild hepatic impairment
[2] = Median (min–max), Child–Pugh moderate hepatic impairment
[3] = Median (min–max), Child–Pugh severe hepatic impairment
[4] = Median (min–max), NCI-ODWG moderate hepatic impairment
[5] = Median (min–max), NCI-ODWG normal hepatic function
[6] = GM, Child–Pugh mild hepatic impairment
[7] = GM, Child–Pugh moderate hepatic impairment
[8] = GM, Child–Pugh severe hepatic impairment
[9] = GM, NCI-ODWG moderate hepatic impairment
[10] = GM, NCI-ODWG normal hepatic function
[11] = Mean (SD), Child–Pugh mild hepatic impairment
[12] = Mean (SD), Child–Pugh moderate hepatic impairment
[13] = Mean (SD), Child–Pugh severe hepatic impairment
[14] = Mean (SD), NCI-ODWG moderate hepatic impairment
[15] = Mean (SD), NCI-ODWG normal hepatic function
[16] = linear regression of log-transformed PK parameter on hepatic function parameter (NCI-ODWG)

Procedure: In Part 1, patients received a single oral dose of rucaparib 600 mg on day 1; PK samples were collected and safety monitored through day 7.
Sample collection, processing, and shipping were conducted according to standardized protocols shared across study sites. Plasma samples were collected for PK analysis at the predose assessment and at 1, 2, 3, 4, 8, 12, 24, 48, 72, 96, 120, and 144 h postdose. A predose urine sample was collected less than 12 h prior to study drug administration. Total urine was collected 0–12 h and 12–24 h postdose. Total (bound and unbound) concentrations of rucaparib and its metabolite M324 in plasma and urine samples were determined by Q Squared Solutions BioSciences (Ithaca, NY, USA) using validated liquid chromatography mass spectrometry/mass spectrometry methods. Stable deuterium-labeled analytes were used as internal standards. The assay calibration ranges for plasma samples were 5–10,000 ng/mL for rucaparib and 1–1000 ng/mL for M324 with lower limits of quantification (LLOQ) of 5.00 and 1.00 ng/mL, respectively. For urine samples, the calibration range was 500–50,000 ng/mL for both rucaparib and M324, with a LLOQ of 500 ng/mL for both analytes. The precision was within 9.3% CV, and the accuracy was within ± 6.2%.
PK parameters were estimated from the concentration–time profiles. Actual elapsed time after dosing was used to estimate plasma PK parameters based on noncompartmental methods using Phoenix® WinNonlin® version 8.1.0 (Certara USA, Inc., Princeton, NJ, USA). […] Exploratory PK parameters for M324 calculated based on plasma and urine concentration-time data were Cmax, AUC0–last, AUC0–inf, t1/2, tmax, Ae0–24, and CLR, as data allowed.
PK parameters were calculated by noncompartmental analysis, analyzed using descriptive statistics, and presented by hepatic functional status. Analysis of variance (ANOVA) was used to compare PK parameters (e.g., Cmax, AUC0–last, and AUC0–inf) between the normal hepatic function group and the moderate hepatic impairment group per NCI-ODWG criteria. PK values were log-transformed before analysis. Baseline covariates (e.g., creatinine clearance [CLcr], sex, age, BMI, and ECOG PS) were tested for any significant effect (P value < 0.05). Geometric least-squares means were used to calculate the ratios of the PK parameters in the hepatic impairment group to those in the control group, along with 90% confidence intervals (CIs). The Wilcoxon rank-sum test was used to compare tmax values between the two groups, and estimates of the median differences were determined, along with 90% CIs. In addition, the relationships between log-transformed PK parameters (AUC0–last, AUC0–inf, Cmax) for rucaparib and M324 and hepatic function parameters (bilirubin and aspartate aminotransferase [AST]) relevant to the classification of hepatic impairment according to NCI-ODWG were explored by a linear regression approach.

Which results are given for `CNCc1ccc(-c2[nH]c3cc(F)cc4c3c2CCNC4=O)cc1` [rucaparib]?
AUC(0-inf) [1]: 8780 ng·h/mL; AUC(0-inf) [2]: 21100 ng·h/mL; AUC(0-inf) [3]: 48300 ng·h/mL; AUC(0-inf) [4]: 20600 ng·h/mL; AUC(0-inf) [5]: 18100 ng·h/mL; AUC(0-t) [6]: 8910 ng·h/mL; AUC(0-t) [7]: 22500 ng·h/mL; AUC(0-t) [8]: 23900 ng·h/mL; AUC(0-t) [9]: 17500 ng·h/mL; AUC(0-t) [10]: 13100 ng·h/mL; AUC(0-t) [11]: 11600 ng·h/mL; AUC(0-t) [12]: 24100 ng·h/mL; AUC(0-t) [13]: 42200 ng·h/mL; AUC(0-t) [14]: 25500 ng·h/mL; AUC(0-t) [15]: 16200 ng·h/mL; AUC(0-t) [1]: 8580 ng·h/mL; AUC(0-t) [2]: 18400 ng·h/mL; AUC(0-t) [3]: 42200 ng·h/mL; AUC(0-t) [4]: 17800 ng·h/mL; AUC(0-t) [5]: 17700 ng·h/mL; Cmax [6]: 550 ng/mL; Cmax [7]: 657 ng/mL; Cmax [8]: 692 ng/mL; Cmax [9]: 583 ng/mL; Cmax [11]: 604 ng/mL; Cmax [12]: 694 ng/mL; Cmax [13]: 827 ng/mL; Cmax [14]: 658 ng/mL; Cmax [15]: 685 ng/mL; Cmax [1]: 590 ng/mL; Cmax [2]: 762 ng/mL; Cmax [3]: 827 ng/mL; Cmax [4]: 471 ng/mL; Cmax [5]: 665 ng/mL; Vd/F [6]: 2320 L; Vd/F [7]: 1460 L; Vd/F [8]: 1530 L; Vd/F [9]: 1960 L; Vd/F [10]: 1650 L; Vd/F [11]: 3340 L; Vd/F [12]: 1660 L; Vd/F [13]: 2700 L; Vd/F [14]: 2840 L; Vd/F [15]: 2220 L; Vd/F [1]: 2130 L; Vd/F [2]: 1280 L; Vd/F [3]: 2700 L; Vd/F [4]: 2190 L; Vd/F [5]: 1270 L; half-life (t1/2, GM, Child–Pugh mild hepatic impairment): 1510 min; half-life (t1/2, GM, Child–Pugh moderate hepatic impairment): 2560 min; half-life (t1/2, GM, Child–Pugh severe hepatic impairment): 2870 min; half-life (t1/2, GM, NCI-ODWG moderate hepatic impairment): 2700 min; half-life (t1/2, GM, NCI-ODWG normal hepatic function): 1570 min; half-life (t1/2, Mean (SD), Child–Pugh mild hepatic impairment): 1650 min; half-life (t1/2, Mean (SD), Child–Pugh moderate hepatic impairment): 2690 min; half-life (t1/2, Mean (SD), Child–Pugh severe hepatic impairment): 2870 min; half-life (t1/2, Mean (SD), NCI-ODWG moderate hepatic impairment): 2800 min; half-life (t1/2, Mean (SD), NCI-ODWG normal hepatic function): 1710 min; half-life (t1/2, Median (min–max), Child–Pugh mild hepatic impairment): 1600 min; half-life (t1/2, Median (min–max), Child–Pugh moderate hepatic impairment): 2990 min; half-life (t1/2, Median (min–max), Child–Pugh severe hepatic impairment): 2870 min; half-life (t1/2, Median (min–max), NCI-ODWG moderate hepatic impairment): 2960 min; half-life (t1/2, Median (min–max), NCI-ODWG normal hepatic function): 1580 min; Tmax [1]: 3.98 h; Tmax [2]: 3.95 h; Tmax [3]: 4.49 h; Tmax [4]: 3.96 h; Tmax [5]: 3.97 h; Slope estimate (90% CI), AUC0-inf vs AST [16]: 0.001 (–0.002 to 0.004); Slope estimate (90% CI), AUC0-inf vs Bilirubin [16]: 0.003 (–0.014 to 0.020); Slope estimate (90% CI), AUC0-last vs AST [16]: 0.001 (–0.002 to 0.004); Slope estimate (90% CI), AUC0-last vs Bilirubin [16]: 0.002 (–0.015 to 0.019); Slope estimate (90% CI), Cmax vs AST [16]: 0 (–0.002 to 0.001); Slope estimate (90% CI), Cmax vs Bilirubin [16]: –0.002 (–0.011 to 0.007)
